Laboratory results: patent publication US20070148703A1, “Method of screening remedy for breast cancer” (Genomembrane, Inc., priority 2003, published 2007)

What was measured:
T-47D cells [1] = assay: Inhibition of [3H] estrone-3-sulfate uptake by T-47D cells; type: cell-based, human; settings: mean±S.E.M. (n=4)
Method: The cell suspension and a solution containing a radiolabeled test compound in the transport medium were separately incubated at 37° C. for 20 min, then transport was initiated by mixing them. […] Each cell pellet was solubilized in 3 N KOH, and neutralized with HCl. Then, the associated radioactivity was measured by means of a liquid scintillation counter using Clearsol-1 (Nacalai tesque) as a liquid scintillation fluid.
To characterize the substrate specificity of the transport system, the inhibitory effects of hormones, their conjugated metabolites, and various organic compounds on [^3H] estrone-3-sulfate uptake by T-47D cells were examined. The results are shown in (Table 1). In Table 1, values in control (%) are indicated as the ratio in comparison to uptake amount of estrone-3-sulfate in control which was set at 100%. Each value represents the mean±S.E.M. (n=4), and *P<0.05 indicates comparison to control (Student's test).

T-47D cells [2] = assay: Uptake of DHEAS by T-47D cells (time course, concentration dependence); type: cell-based, human; settings: 10.3 nM to 100 μM, 37° C., 10 min, saturable uptake
Method: The uptake of DHEAS at various concentrations, ranging from 10.3 nM to 100 μM, was measured at 37° C. for 10 min. The saturable uptake was obtained after subtraction of the uptake in the presence of excess of unlabeled DHEAS (5 mM) and used for the evaluation of kinetic constants by nonlinear least-squares analysis. […] Each value represents the mean±S.E.M. (n=4). When the error bars are not shown, they are smaller than the symbols.
Transport experiments were performed as described previously (Tamai et al., 2001). After cultivation of T-47D cells in 15 cm dishes, the cells were harvested and suspended in the transport medium containing 125 mM NaCl, 4.8 mM KCl, 5.6 mM D-glucose, 1.2 mM CaCl2, 1.2 mM KH2PO4, 1.2 mM MgSO4 and 25 mM Hepes, adjusted to pH 7.4. […] Then, the associated radioactivity was measured by means of a liquid scintillation counter using Clearsol-1 (Nacalai tesque) as a liquid scintillation fluid.
Cellular protein content was determined according to the method of Bradford by using a BioRad protein assay kit (Hercules) with bovine serum albumin as the standard (Bradford, 1976). […] All data were expressed as means±S.E.M., and statistical analysis was performed by the use of Student's t test with P<0.05 as the criterion of significance. […]

Dehydroepiandrosterone sulfate
[3H] estrone-3-sulfate uptake, Control (%) (T-47D cells [1]; inhibitor 5 μM): 66.4 ± 5.7 * %
[3H] estrone-3-sulfate uptake, Control (%) (T-47D cells [1]; inhibitor 50 μM): 27.0 ± 7.6 * %
[3H] estrone-3-sulfate uptake, Control (%) (T-47D cells [1]; inhibitor 50 μM, listed as DHEAS): 44.8%
Km (T-47D cells [2]): 62.5 ± 21.1 µM
Vmax of DHEAS uptake (T-47D cells [2]): 1893±315.7 pmol/mg protein/10 min
